Entries after “also recorded” stand apart in the source; their conditions may differ.
How the values were obtained:
[1] = system: glioma-initiating cells (TGS-01, TGS-04); assay: Sphere formation assay; assay type: cell-based, human
Protocol: GICs were cultivated for seven days using a non-tissue-culture-treated-flask with vent cap (BD Bioscience). The floating spheres were counted for each sample within five fields of vision under a microscope.
To clarify the role of TGF-β signals in glioma-initiating cells, first the effects due to TGF-β signal inhibition were examined. A sphere formation ability assay was implemented in the presence of either TGF-β or a TGF-β inhibitor (SB431542, 1 μM).
SB431542 can inhibit not only the TGF-β type I receptor (ALK5), but also activin/nodal type I receptor signals, so to identify the role of TGF-β signals, the effects of a TGF-β receptor II/Fc chimera on glioma-initiating cells were examined. The glioma-initiating cells were separated into single cells, and a sphere assay implemented in the presence of either human TGF-βRII/Fc chimera (1 μg/mL), or IgG1Fc (1 μg/mL) as a control.

[2] = system: SMAD complexes binding to Sox4 promoters; assay: Chromatin immunoprecipitation with SMAD2 and SMAD3 antibodies; assay type: cell-based, human; details: TGS-01; 1.5 hours; TGF-β 100 μM or SB431542 1 μM
Protocol: (§1) Chromatin immunoprecipitation was implemented using the method described by Koinuma et al. (Molecular and Cellular Biology, 2009, 29:172-186, 10.1128/MCB, 01038-08). After reverse cross-linking, the DNA was processed using proteinase K, and refined using a PCR purification kit (Qiagen). The DNA was eluted into 30 μL of TE, and used in either PCR or quantitative real-time PCR. The primers used in the PCR are as described below.
To verify that Sox4 is a direct TGF-β marker, chromatin immunoprecipitation assay was implemented using antibodies to SMAD2 and SMAD3, which are DNA binding signal mediators for the TGF-β signals. Specifically, TGS-01 cells were processed for 1.5 hours using either TGF-β (100 μM), or SB431542 (1 μM), and the eluted DNA was supplied for either real-time PCR or RT-PCR. In real-time PCR, the measured values were normalized using the first introns of hypoxanthine phosphoribosyltransferase (HPRT). […] (See FIG. 6F.)

[3] = system: TGS-01 cells transplanted intracranially; assay: Intracranial proliferation assay; assay type: in vivo, BALB/c nu/nu mice
Protocol: Glioma-initiating cells (living cells […] in 5 μL of DMEM/F12 culture) were injected stereotaxically at a depth of 3 mm into the right cerebral hemisphere of five-week-old female BALB/c nu/nu mice. All animal testing was implemented according to the policies of the University of Tokyo animal testing committee.
Specifically, adenovirus-Sox4 or adenovirus-LacZ staining was implemented, and 5×10^4 TGS-01 cells either unprocessed or after 24 hours processing using a TGF-β inhibitor were transplanted intracranially. TGF-β is well-known to promote glioma cell proliferation, so to classify the results into effects on growth and effects in differentiation, SB431542 processing was implemented as pre-processing and not implemented continuously. Six mice were used for each condition, and evaluated using Kaplan-Meier analysis. The p values were determined using the long-rank test. […] Further, the results of histological analysis of the samples dissected 30 days after intracranial transplant are shown in FIG. 11 (Right). Tissue sections were stained using hematoxylin and eosin (HE).

Sox4 mRNA = Sox4 mRNA expression by quantitative real-time PCR; assay type: cell-based, human; details: for Sox4 mRNA expression: TGS-01 and TGS-04, three hours and 24 hours, TGF-β 100 μM or SB431542 1 μM
Source text: (§2) Quantitative real-time PCR was implemented according to the method by Ikushima et al. (EMBO J. 2008, 27: 2955-2965). All samples were implemented in triplicate. The data was normalized using glyceraldehyde 3-phosphate dehydrogenase (GAPDH).

[4] = system: CD133-positive cells in glioma spheres; assay: Flow cytometry of CD133-positive cells; assay type: cell-based, human
Protocol: The cells were separated into single cells, and marked using phycoerythrin marker CD133 antibodies. The expression levels were measured using EXPO32 ADC software through a Beckman C EPICS XL flow cytometer.
(§3) Next, the effects of TGF-β (100 μM) or SB431542 (1 μM) were examined using flow cytometry. In the presence of TGF-β inhibitors, the percentage of CD133-positive cells in the glioma spheres was reduced. (See FIG. 3A.) Further, to examine the expression of neural precursor cell markers or neural cell differentiation markers in the glioma spheres, the spheres (TGS-01) were separated into single serum-free culture, and seeded on glass slides that had been coded using poly-L-ornithine (Sigma) and fibronectin (Sigma), and were then cultured for seven days together with TGF-β (100 μM) or the inhibitor SB431542 (1 μM). The cells were fixed using 3.7% paraformaldehyde, and the cell membrane was made permeable using 0.3% Triton […] including PBS, and incubated together with antibodies before immunostaining was implemented.

[5] = system: Nestin, Musashi, GFAP, Tuj1 positive glioma-initiating cells; assay: Immunostaining of neural precursor and differentiation markers; assay type: cell-based, human
Protocol: Glioma-initiating cells (GICs) were seeded on glass slides that had been coded using poly-L-ornithine (Sigma) and fibronectin (Sigma), and were then cultured for seven days together with various ligands or inhibitors in serum-free culture. The cells were fixed using 3.7% paraformaldehyde, and then the cell membrane was made permeable using 0.3% Triton […] including PBS, and incubated together with various antibodies.
as §3

Sox2 protein = Sox2 protein level by immunoblotting; assay type: cell-based, human; details: 24-hour processing; TGF-β 100 μM or SB431542 1 μM
Protocol: The cells were dissolved in a buffer including 1% Nonidet P-40, 20 mM Tris-hydrochloride (pH7.4), 150 mM sodium chloride, 1 mM PMSF, 1% aprotinin, and 5 mM EDTA. The proteins refined from the cytolized product was supplied to SDS-PAGE, and transferred to a Fluoro Trans W Membrane (Pall). Immunoblotting was implemented using various types of antibodies.
Moreover, it was also verified that the 24-hour processing using TGF-β (100 μM) or SB431542 (1 μM) suppressed the expression of Sox2 protein levels. (See FIG. 4C.) In the diagram, α-tubulin is the loading control.

[6] = system: Sox4 recruitment to the Sox2 enhancer region; assay: Chromatin immunoprecipitation with Sox4 antibodies; assay type: cell-based, human; details: TGS-01; 24 hours; TGF-β 100 μM or SB431542 1 μM
Protocol: as §1
To verify that this control is direct, chromatin immunoprecipitation assay was implemented using Sox4 antibodies. It has previously been reported that the enhancer region located in the Sox2 gen 3′ flanking region is important for controlling Sox2 expression. (Chew et al., Molecular and Cellular Biology, 2005, 25:6031-6046; Tomioka et al., Nucleic Acids Research, 2002, 30: 3202-3213.) This region includes the consensus binding motif CATTGTA to Sox4. […]
Here, TGS-01 cells were processed for 24 hours using either TGF-β (100 μM), or SB431542 (1 μM), and the eluted DNA analyzed using quantitative real-time PCR. The measured values were normalized using HPRT first intron quantities. […] Further, to examine the effects of Sox4 knockdown on sox2 expression induction by TGF-β, siRNA was stained, and after for 24 hours, was processed for a further 24 hours using TGF-β (100 μM), and the Sox2 mRNA expression levels measured using real-time PCR. […]

Sox2 mRNA = Sox2 mRNA expression by quantitative real-time PCR; assay type: cell-based, human
Protocol: as §2
In addition, siRNA (siSMAD2 and siSMAD3) were transfected to SMAD2 and SMAD3 in TGS-01 cells, and incubated for 24 hours, and then processed for TGF-β (100 μM), and the expression levels measured. […] (See FIG. 4B).
The induction of Sox2 expression by TGF-β was observed 24 hours after stimulation, but not observed after three hours. (See FIG. 4A.) Further, the effects of TGF-β on Sox2 expression in the presence of cycloheximide, which is a protein synthesis inhibitor, were examined. TGF-β (100 μM) processing was implemented for 24 hours, and after processing the TGF-β for 30 minutes, the cycloheximide processing was started, and the Sox2 expression levels were measured. In the presence of cycloheximide, which is a protein synthesis inhibitor, the induction of Sox2 expression was reduced. From these facts, it is thought that Sox2 expression is not induced directly by TGF-β, but rather, that it is controlled by other factors that are induced by TGF-β.

[7] = system: Oct-4, NANOG, and LIF expression; assay: Expression of stem cell markers Oct-4, NANOG, LIF; assay type: cell-based, human
Source text: as §2
(See FIG. 14.) Further, it has been reported that NANOG and LIF are induced in many cells by stimulating TGF-β. (Xu et al., Cell Stem Cell, 2008, 3: 206; Bruna et al., Cancer Cell, 2007, 11: 147-160.)

[8] = cells pre-processed with SB431542, 30 days after intracranial transplant
[9] = 24 hours after processing, TGF-β 100 μM or SB431542 1 μg (so in the source)

Molecule: CC1=C2C[C@H]3[C@@H](CC=C4C[C@@H](O)CC[C@@]43C)[C@@H]2CC[C@]12O[C@@H]1C[C@H](C)CN[C@H]1[C@H]2C [cyclopamine]
- effects on sphere formation compared with SB431542 ([1]; TGS-01, cyclopamine 2.5, 5, 10 μM vs SB431542 1 μM): smaller than those of SB431542
- effect on sphere formation of the two drugs combined ([1]; TGS-01, cyclopamine combined with SB431542 1 μM): no additional or synergistic effect
- sphere formation ability of TGS-01 cells ([1]; cyclopamine 2.5, 5, and 10 μM, seven days): reduced

Molecule: NC(=O)c1ccc(-c2nc(-c3ccc4c(c3)OCO4)c(-c3ccccn3)[nH]2)cc1 [SB431542]
- binding of SMAD complexes to Sox4 promoters [2]: clearly controlled
- survival period of the mice ([3]; TGS-01 (adenovirus-LacZ) pre-processed 24 hours with SB431542 vs unprocessed control, Kaplan-Meier): significantly longer
- neurological symptoms [3, 8]: did not show any neurological symptoms
- tumors on pathological examination using HE staining [3, 8]: did not reveal any tumors
- extension of survival periods ([3]; glioma-initiating cells over-expressing Sox4, pre-processed with SB431542): did not shown any effects
- Sox4 mRNA expression (Sox4 mRNA): down-regulated
- percentage of CD133-positive cells in the glioma spheres ([4]; SB431542 1 μM): reduced
- percentages of Nestin-positive cells and GFAP-positive cells ([5]; TGS-01 over-expressing Sox4, SB431542, seven days): no major changes
- percentage of GFAP-positive cells ([5]; cells over-expressing Sox2): did not increase
- percentage of Nestin-positive cells ([5]; cells over-expressing Sox2): did not fall
- expression of Sox2 protein levels (Sox2 protein): suppressed
- Sox4 recruitment to the Sox2 enhancer region [6]: clearly reduced
- sphere formation ability of glioma-initiating cells ([1]; SB431542 1 μM, seven days culture): conspicuously reduced
- spherical growth pattern of spheres that had once formed ([1]; SB431542 added to formed spheres): became adhesion cells
- sphere formation ability ([1]; TGS-01 over-expressing Sox4 (adenovirus-Sox4 vs adenovirus-LacZ), SB431542 1 μM, seven days): fall in sphere formation ability was alleviated
- sphere formation abilities ([1]; glioma-initiating cells over-expressing Sox2, compared to LacZ over-expressing cells): reduced only slightly
- expression of Sox2 mRNA (Sox2 mRNA; [9]): suppressed
- expression of Sox2 mRNA (Sox2 mRNA; subsequently for seven days, SB431542 1 μg (so in the source)): low expression level continued

Molecule: C[C@@H]1C[C@@H]([C@H](O)CC2CC(=O)NC(=O)C2)C(=O)[C@@H](C)C1 [cycloheximide]
- Sox4 induction by TGF-β in the presence of cycloheximide (Sox4 mRNA): not influenced
- induction of Sox2 expression by TGF-β in the presence of cycloheximide (Sox2 mRNA; TGF-β 100 μM (so in the source) 24 hours, cycloheximide started after 30 minutes): reduced

Molecule: TGF-β
- binding of SMAD complexes to Sox4 promoters [2]: bound directly
- Sox4 mRNA expression (Sox4 mRNA): induced
- CD133-positive ratio ([4]; adding TGF-β (100 μM [sic])): did not greatly influence
- LIF expression ([7]; TGS-01 or TGS-04 cells, TGF-β signals): did not induce
- expression of Oct-4, NANOG, and LIF ([7]; processing using TGF-β or an inhibitor): not greatly affected
- marker expression ([5]; adding TGF-β (100 μM [sic]), seven days): did not greatly influence
- expression of Sox2 protein levels (Sox2 protein): suppressed
- Sox4 recruitment to the Sox2 enhancer region [6]: increased
- sphere formation ability ([1]; adding TGF-β): did not greatly influence
- expression of Sox2 mRNA (Sox2 mRNA; [9]): induced; also recorded: observed
- induction of Sox2 expression (Sox2 mRNA; three hours after TGF-β stimulation): not observed

B1: TGF-βRII/Fc: human TGF-β receptor II/Fc chimera (protein)
chain: TIPPHVQKSVNNDMIVTDNNGAVKFPQLCKFCDVRFSTCDNQKSCMSNCSITSICEKPQEVCVAVWRKNDENITLETVCHDPKLPYHDFILEDAASPKCIMKEKKKPGETFFMCSCSSDECNDNIIFSEEYNTSNPD
modifications: left off: a dimerising Fc or GST
notes: human TGF-β receptor II/Fc chimera
- efficiency in forming spheres ([1]; human TGF-βRII/Fc chimera 1 μg/mL, IgG1Fc 1 μg/mL as control): low
